Assay results: patent publication US11654138B2, “Therapeutic agents for treating and preventing autoimmune diseases and cancer and a screening method” (KING FAISAL UNIVERSITY, priority 2019, dated 2023)

Key:
[1] = test system: CIA; assay: Collagen-induced arthritis (CIA) model; format: in vivo, C57BL mice; settings: for CIA clinical scores: 0.25 mg i.p. on days 0, 3, 6, 9, 12, 15, 18, vs corn oil, FIG. 7A; for Serum level of IL-6 / Frequency of CD4+IL-17+ cells in the secondary lymphoid organs: 0.25 mg i.p.; for Serum level of IL-6: day 45, FIG. 7B; for Frequency of CD4+IL-17+ cells in the secondary lymphoid organs: day 45, flow cytometry, FIG. 7C
[2] = test system: IMQ-induced psoriasis; assay: IMQ-induced psoriasis model; format: in vivo, male BALB/c mice; settings: for Clinical scores (erythema and thickness of the right ear): topical ointment 40 mg/cm^2 day 0 to 8, vs Vaseline, FIG. 8A; for Il6 mRNA expression in whole biopsies of the right ear / Il17a mRNA expression in whole biopsies of the right ear: topical ointment, day 8, FIG. 8B
Procedure: Experimental psoriasis was induced following a modified method described previously (Sun et al. 2013). To induce disease in male BALB/c mice (6-8 weeks; n=6), imiquimod (IMG; Sichuan Med-Shine Pharmaceutical) at 5% was applied topically at 20 mg/cm^2 on the inside of the right ear for 8 consecutive days. An evaluation system for assessment of erythema and thickness of the ear was developed. Erythema was assessed using a table with red […] (0-4) and ear thickness (0-4) measured using a digital caliber on days 2, 4, 6, and 8 after first IMQ application. The sum of the two parameters scores (ranging from 0-8) was used to indicate the overall clinical score. Treatment ointment was prepared by mixing 1 mg of DMSO-dissolved POE or its representative analogs including POE A2 or POE A3 with 20 gm of Vaseline Petroleum Jelly Original (vehicle, Unilever Inc.); the mixture was then incubated at room temperature overnight. From day 0 to day 8 the mice were treated topically with the treatment ointment (40 mg/cm^2) or Vaseline (IMQ/control). The mRNAs encoding Il6 and Il17a were isolated from whole biopsies of the ear (day 8) and reverse transcribed to make cDNA. The cDNA was then amplified by real-time PCR using TaqMan Gene Expression Assays (Mm00446190_ml, Mm00439618_ml, respectively; Applied Biosystems). The relative expression of mRNAs was calculated by the ΔΔCt method and presented relative to that of IMQ control mice.

Cc1nnc(SCC(=O)c2ccccc2)o1 [POE A1] was tested, and the CIA clinical scores [1] was “comparably reduced CIA clinical scores”, the “Serum level of IL-6” value [1] was “reduced serum levels of IL-6” and the “Frequency of CD4+IL-17+ cells in the secondary lymphoid organs” value [1] was “reduced the frequency of CD4^+IL-17^+ cells”.

In the case of Cc1nnc(NCC(=O)c2ccccc2)s1 [POE A2, 2-[(5-methyl-1,3,4-thiadiazol-2-yl)amino]-1-phenylethan-1-one], the CIA clinical scores [1] is reported as “comparably reduced CIA clinical scores”, the “Serum level of IL-6” value [1] is reported as “reduced serum levels of IL-6” and the “Frequency of CD4+IL-17+ cells in the secondary lymphoid organs” value [1] is reported as “reduced the frequency of CD4^+IL-17^+ cells”. For the same compound, the “Clinical scores (erythema and thickness of the right ear)” value [2] was “comparably reduced clinical scores”, the “Il6 mRNA expression in whole biopsies of the right ear” value [2] was “suppressed mRNA expression” and the “Il17a mRNA expression in whole biopsies of the right ear” value [2] was “suppressed mRNA expression”.

In the case of CC(=O)CSc1nnc(-c2cccnc2)o1 [POE A3, 2-Propanone, 1-[[5-(3-pyridinyl)-1,3,4-oxadiazol-2-yl]thio]-], the “Clinical scores (erythema and thickness of the right ear)” value [2] is reported as “comparably reduced clinical scores”, the “Il6 mRNA expression in whole biopsies of the right ear” value [2] is reported as “suppressed mRNA expression” and the “Il17a mRNA expression in whole biopsies of the right ear” value [2] is reported as “suppressed mRNA expression”.
